One test relates to Pseudomonas aeruginosa. The experiment in a line: Antibacterial activity against Pseudomonas aeruginosa by broth microdilution method. The class given is functional. A general note: Dilution methods test growth across graded concentrations, often in twofold steps.
The next test relates to Staphylococcus aureus. Description: Antibacterial activity against Staphylococcus aureus by broth microdilution method. The class given is functional.
The subject of the next test is Escherichia coli. The experiment in a line: Antibacterial activity against Escherichia coli by broth microdilution method. The class given is functional.
The test system of a further test is MCF7. The experiment in a line: Cytotoxicity against human MCF7 cells. The class given is functional, cell-based.
In a further test the test system is HeLa. Description: Cytotoxicity against human HeLa cells. It is filed as functional, cell-based.
Another test concerns HepG2. Description: Cytotoxicity against human HepG2 cells. It is filed as functional, cell-based.
For the next test, the system named is A549. Description: Cytotoxicity against human A549 cells. The class given is functional, cell-based.
The next test deals with HCT-116. The experiment in a line: Cytotoxicity against human HCT-116 cells. The class given is functional, cell-based.
Test [1] is filed under the species Danio rerio. The experiment in a line: Induction of pro-angiogenic activity in transgenic Tg (flk1:EGFP) zebrafish model assessed as growth of intersegmental vessel at 40 uM for 24 hrs by olympus fluorescence microscopy analysis. The class given is functional, organism-based.
The species named for test [2] is Danio rerio. Description: Induction of pro-angiogenic activity in transgenic Tg (flk1:EGFP) zebrafish model assessed as growth of intersegmental vessel at 10 uM for 24 hrs by olympus fluorescence microscopy analysis. The class given is functional, organism-based.
The species entered for test [3] is Danio rerio. The experiment in a line: Induction of pro-angiogenic activity in transgenic Tg (flk1:EGFP) zebrafish model assessed as growth of intersegmental vessel at 20 uM for 24 hrs by olympus fluorescence microscopy analysis. It is filed as functional, organism-based.

The structures appear in SMILES notation. Converted amounts (≈) assume the structure as drawn. The source made the active and inactive calls. The calls are words filed in the database; no cut-off is given here.

For the compound `O=C(O)c1cn(C2CC2)c2cc(N3CCNCC3)c(F)cc2c1=O` [CIPROFLOXACIN], the values for the MIC with Pseudomonas aeruginosa and in the test with Staphylococcus aureus were 4 µg/mL (≈ 12.1 µM) and 0.5 µg/mL (≈ 1.51 µM), respectively.

`COc1c(O)cc2c(c1O)C(=O)O[C@H](C)[C@H]2Oc1cc2c(c(O)c1OC)C(=O)O[C@H](C)C2`: the MIC (usually the lowest concentration that inhibits growth of the organism) in the test with Escherichia coli is 1 µg/mL (≈ 2.24 µM); against Pseudomonas aeruginosa, 32 µg/mL (≈ 71.7 µM); against Staphylococcus aureus, 2 µg/mL (≈ 4.48 µM). The outcome in the test on MCF7, in the test with HeLa, in the test on HepG2, in the test with A549 and in the test on HCT-116 was inactive.

Turning to `COc1c(O)cc2c(c1O)C(=O)O[C@H](C)[C@@H]2Oc1c(Cl)c2c(c(O)c1OC)C(=O)O[C@H](C)C2`, the MIC was found to be 64 µg/mL (≈ 133 µM) against Escherichia coli, 32 µg/mL (≈ 66.5 µM) with Pseudomonas aeruginosa and 64 µg/mL (≈ 133 µM) with Staphylococcus aureus. Moreover, the result in the test on MCF7, in the test on HeLa, in the test on HepG2, in the test with A549 and in the test on HCT-116 was inactive.

Turning to `COc1c(O)cc2c(c1O)C(=O)O[C@H](C)[C@@H]2Oc1c(Cl)c2c(c(O)c1OC)C(=O)O[C@H](C)[C@H]2O`, the values for the MIC in the test with Escherichia coli, in the test with Pseudomonas aeruginosa and against Staphylococcus aureus were 32 µg/mL (≈ 64.4 µM), 32 µg/mL (≈ 64.4 µM) and 64 µg/mL (≈ 129 µM), respectively. Further, the result in the test filed under Danio rerio [1], in the test filed under Danio rerio [2] and in the test listed under Danio rerio [3] was Active. Further, the result in the test with MCF7, in the test on HeLa, with HepG2, in the test with A549 and with HCT-116 was inactive.

As to `COc1c(O)c(Cl)c2c(c1O)C(=O)O[C@H](C)[C@H]2OC(C)=O`, the results for the MIC against Escherichia coli, with Pseudomonas aeruginosa and in the test with Staphylococcus aureus were 32 µg/mL (≈ 101 µM), over 64 µg/mL and 32 µg/mL (≈ 101 µM), respectively. In addition, the result in the test listed under Danio rerio [1], in the test filed under Danio rerio [2] and in the test listed under Danio rerio [3] was Active. Further, the result in the test on MCF7, in the test with HeLa, in the test with HepG2, with A549 and in the test with HCT-116 was inactive.

Turning to `COc1c(O)cc2c(c1O)C(=O)O[C@H](C)[C@H]2OC`, the figures for the minimal inhibitory concentration (MIC) in the test on Escherichia coli, in the test on Pseudomonas aeruginosa and with Staphylococcus aureus were 16 µg/mL (≈ 62.9 µM), 64 µg/mL (≈ 252 µM) and 64 µg/mL (≈ 252 µM), respectively. Further, the result in the test with MCF7, in the test on HeLa, with HepG2, in the test with A549 and with HCT-116 was inactive.

Regarding `COc1c(O)cc2c(c1O)C(=O)O[C@H](C)[C@H]2Oc1c(Cl)c2c(c(O)c1OC)C(=O)O[C@H](C)C2`, the MIC against Escherichia coli turned out to be 32 µg/mL (≈ 66.5 µM); against Pseudomonas aeruginosa, 32 µg/mL (≈ 66.5 µM); against Staphylococcus aureus, 64 µg/mL (≈ 133 µM). Moreover, the outcome in the test on MCF7, in the test with HeLa, in the test on HepG2, with A549 and in the test on HCT-116 was inactive.

Regarding `C[C@@H]1Cc2cc(O)c(O)c(O)c2C(=O)O1`, the MIC in the test with Escherichia coli stood at 64 µg/mL (≈ 304 µM); in the test with Pseudomonas aeruginosa it was 32 µg/mL (≈ 152 µM); against Staphylococcus aureus, 64 µg/mL (≈ 304 µM). The result in the test with MCF7, in the test with HeLa, with HepG2, with A549 and in the test with HCT-116 was inactive.

Regarding `COc1c(O)cc2c(c1O)C(=O)O[C@H](C)[C@H]2Oc1cc2c(c(O)c1OC)C(=O)O[C@H](C)[C@@H]2O`, the MIC against Escherichia coli was 64 µg/mL (≈ 138 µM); in the test on Pseudomonas aeruginosa, 16 µg/mL (≈ 34.6 µM); against Staphylococcus aureus, 16 µg/mL (≈ 34.6 µM). The result with MCF7, in the test on HeLa, in the test on HepG2, in the test on A549 and with HCT-116 was inactive.

`CCO[C@H]1c2cc(O)c(OC)c(O)c2C(=O)O[C@@H]1C`: the result in the test on MCF7, in the test with HeLa, in the test on HepG2, in the test on A549 and in the test with HCT-116 was inactive.

Turning to `COc1c(O)cc2c(c1O)C(=O)O[C@H](C)[C@@H]2Oc1c(Cl)c2c(c(O)c1OC)C(=O)O[C@H](C)[C@@H]2O`, the MIC in the test with Escherichia coli was 8 µg/mL (≈ 16.1 µM); in the test with Pseudomonas aeruginosa it was 64 µg/mL (≈ 129 µM); against Staphylococcus aureus, 64 µg/mL (≈ 129 µM). In addition, the result with MCF7, in the test with HeLa, in the test with HepG2, in the test on A549 and in the test on HCT-116 was inactive.

As to `COc1c(O)c(Cl)c2c(c1O)C(=O)O[C@H](C)C2`, the MIC against Escherichia coli is 2 µg/mL (≈ 7.73 µM); against Pseudomonas aeruginosa, 32 µg/mL (≈ 124 µM); with Staphylococcus aureus, 32 µg/mL (≈ 124 µM). For the same compound, the outcome in the test with MCF7, in the test on HeLa, with HepG2, in the test on A549 and with HCT-116 was inactive.

With `COc1c(O)c(Cl)c2c(c1O)C(=O)O[C@H](C)[C@@H]2O`, the MIC in the test on Escherichia coli, in the test on Pseudomonas aeruginosa and in the test with Staphylococcus aureus was 64 µg/mL (≈ 233 µM) in each case. Also, the result in the test on MCF7, in the test with HeLa, in the test with HepG2, in the test with A549 and in the test with HCT-116 was inactive.

Take `COc1c(O)cc2c(c1O)C(=O)O[C@H](C)[C@@H]2Oc1cc2c(c(O)c1OC)C(=O)O[C@H](C)C2`: the figures for the MIC with Escherichia coli, against Pseudomonas aeruginosa and in the test with Staphylococcus aureus were 1 µg/mL (≈ 2.24 µM), 32 µg/mL (≈ 71.7 µM) and 64 µg/mL (≈ 143 µM), respectively. Moreover, the result in the test on MCF7, in the test on HeLa, with HepG2, in the test with A549 and in the test with HCT-116 was inactive.

With `COc1c(O)cc2c(c1O)C(=O)O[C@H](C)[C@@H]2O`, the figures for the MIC against Escherichia coli, against Pseudomonas aeruginosa and in the test with Staphylococcus aureus were 8 µg/mL (≈ 33.3 µM), 64 µg/mL (≈ 266 µM) and 64 µg/mL (≈ 266 µM), respectively. Further, the outcome in the test with MCF7, in the test with HeLa, in the test with HepG2, in the test on A549 and in the test on HCT-116 was inactive.

Regarding `COc1c(O)cc2c(c1O)C(=O)O[C@H](C)[C@H]2Oc1c(Cl)c2c(c(O)c1OC)C(=O)O[C@H](C)[C@H]2O`, the MIC in the test on Escherichia coli came to 32 µg/mL (≈ 64.4 µM); in the test with Pseudomonas aeruginosa, 64 µg/mL (≈ 129 µM); with Staphylococcus aureus, 64 µg/mL (≈ 129 µM). The result in the test listed under Danio rerio [1], in the test filed under Danio rerio [2] and in the test filed under Danio rerio [3] was Active. Also, the outcome in the test with MCF7, in the test on HeLa, in the test with HepG2, in the test on A549 and in the test on HCT-116 was inactive.

Consider `COc1c(O)c(Cl)c2c(c1O)C(=O)O[C@H](C)[C@H]2O`, for which the MIC in the test with Escherichia coli is 32 µg/mL (≈ 117 µM); in the test on Pseudomonas aeruginosa, 32 µg/mL (≈ 117 µM); with Staphylococcus aureus, 64 µg/mL (≈ 233 µM). Also, the result in the test on MCF7, in the test on HeLa, in the test on HepG2, in the test on A549 and with HCT-116 was inactive.

Turning to `COc1c(O)cc2cc(C)oc(=O)c2c1O`, the MIC against Escherichia coli turned out to be 16 µg/mL (≈ 72 µM); with Pseudomonas aeruginosa, 32 µg/mL (≈ 144 µM); against Staphylococcus aureus it was 4 µg/mL (≈ 18 µM). The result in the test on MCF7, with HeLa, with HepG2, with A549 and in the test with HCT-116 was inactive.

On to `COc1c(O)cc2c(c1O)C(=O)O[C@H](C)[C@@H]2OC`, for which the MIC is 16 µg/mL (≈ 62.9 µM) with Escherichia coli, 64 µg/mL (≈ 252 µM) in the test with Pseudomonas aeruginosa and 64 µg/mL (≈ 252 µM) against Staphylococcus aureus. The result in the test on MCF7, with HeLa, with HepG2, in the test with A549 and in the test on HCT-116 was inactive.

Regarding `C[C@H]1OC(=O)c2c(O)cc(O)cc2[C@H]1Cl`, the MIC against Escherichia coli is 32 µg/mL (≈ 140 µM); against Pseudomonas aeruginosa it was 64 µg/mL (≈ 280 µM); in the test with Staphylococcus aureus, 64 µg/mL (≈ 280 µM). For the same compound, the result in the test on MCF7, in the test with HeLa, in the test on HepG2, in the test with A549 and with HCT-116 was inactive.

With `COc1c(O)cc2c(c1O)C(=O)O[C@H](C)[C@H]2Oc1c(Cl)c2c(c(O)c1OC)C(=O)O[C@H](C)[C@@H]2O`, the MIC against Escherichia coli was determined as 4 µg/mL (≈ 8.05 µM); against Pseudomonas aeruginosa it was 64 µg/mL (≈ 129 µM); in the test with Staphylococcus aureus, 64 µg/mL (≈ 129 µM). The result in the test on MCF7, with HeLa, in the test with HepG2, in the test on A549 and with HCT-116 was inactive.

The values are drawn from ChEMBL document CHEMBL6153145, “Isocoumarins from Spegazzinia sp. MDCW-573 with Antibacterial and Proangiogenic Activities” (2025).
